The values below come from patent publication US11530458B2, “Methods of using multi-ligand metal complexes to perform oxidative catalytic pretreatment of lignocellulosic biomass” (Board of Trustees of Michigan State University, priority 2014, dated 2022).

The experiment in a line: Catalytic AOP pretreatment of alkali-extracted switchgrass, then enzymatic hydrolysis (glucose yield). Further details: species or system Panicum virgatum. Particulars: 24 hr AOP pretreatment of AESG, catalyst concentration per table. The protocol:
Screening of various metal ligand complexes (hereinafter “catalysts”) was performed via catalytic alkaline oxidative pretreatment (AOP) pretreatment of alkali-extracted switchgrass (AESG). To prepare AESG, 80 grams of untreated switchgrass (Panicum virgatum, cv. Cave-In-Rock, hammer milled to pass a 5-mm screen, and stored at a moisture content of approximately 5%) was soaked in an aqueous solution of 5 g/L NaOH at 80° C. for 2 hrs. The weight-to-volume (w/v) solids loading of switchgrass during alkaline extraction was 10% (e.g., 10 g of biomass in 100 mL NaOH solution). […] The washed solids was recovered as AESG and air-dried for over 7 days.
[Al(III)(3,5-^tBu2-salophen)Cl] [3,5-^tBu2-salophen=N,N′-bis(3,5-di-tert-butylsalicylidene)-1,2-phenylenediamine], [Zn(II)(BPPA)Cl]Cl [BPPA=N,N-bis(6-pivaloylamido-2-pyridylmethyl)-N-(2-pyridylmethyl)amine], and [NEt4][Fe(III)(bpb)Cl2]
To study the effect of catalytic AOP pretreatment on AESG, pretreatment was performed in a 100 g/L aqueous suspension of AESG in the presence of each catalyst. […] After 24 hrs of incubation at 30° C. without mixing, the pretreated switchgrass slurry was washed using deionized water to remove the alkaline phosphate buffer.
The enzymatic digestibility of AOP-pretreated switchgrass was estimated by the yield of glucose during the enzymatic hydrolysis of AOP pretreated AESG. The percentage yield was calculated on the basis of the glucan content in AESG prior to catalytic AOP pretreatment.
For enzymatic hydrolysis, 500 μL of 1 M Na-citrate buffer (pH 5) and 40 μL of 10 mM tetracycline (Sigma-Aldrich) were added to AOP-AESG that was not dried after catalytic AOP pretreatment. Accellerase 1500 (42 FPU/mL; Danisco-Genencor, Palo Alto, Calif.) was added at 50 mg protein per gram of glucan in AESG. The total volume of the mixture (solid and liquid) was adjusted with deionized water to reach a 5% (w/v) solids concentration, and the samples were incubated at 50° C. during hydrolysis.

Consider `CC[N+](CC)(CC)CC.O=C([N-]c1ccccc1[N-]C(=O)c1ccccn1)c1ccccn1.[Cl-].[Cl-].[Fe+3]` [[NEt4][Fe(III)(bpb)Cl2]], for which the “Glucose yield of enzymatic hydrolysis (% of theoretical maximum)” value (“Glucose yield … (% of theoretical maximum)” for short) by setting is: (pH 9, 24 hrs hydrolysis) 27.07 ± 0.6 % of theoretical maximum; (pH 9, 72 hrs hydrolysis) 34.27 ± 0.21 % of theoretical maximum; (pH 10, 24 hrs hydrolysis) 25.54 ± 0.21 % of theoretical maximum; (pH 10, 72 hrs hydrolysis) 31.97 ± 0.13 % of theoretical maximum; (pH 11, 24 hrs hydrolysis) 27.44 ± 1.54 % of theoretical maximum; (pH 11, 72 hrs hydrolysis) 31.54 ± 0.23 % of theoretical maximum.

In the case of `CC(C)(C)C(=O)Nc1cccc(CN(Cc2ccccn2)Cc2cccc(NC(=O)C(C)(C)C)n2)n1.[Cl-].[Cl-].[Zn+2]` [[Zn^II(BPPA)Cl]Cl, [Zn(II)(BPPA)Cl]Cl], the “Glucose yield … (% of theoretical maximum)” value runs as follows: (pH 10, 24 hrs hydrolysis) 26.43 ± 0.31 % of theoretical maximum; (pH 11, 24 hrs hydrolysis) 27.33 ± 0.62 % of theoretical maximum; (pH 13, 24 hrs hydrolysis) 33.36 ± 0.3 % of theoretical maximum.

For the compound `CC(C)(C)c1cc(C=Nc2ccccc2N=Cc2cc(C(C)(C)C)cc(C(C)(C)C)c2[O-])c([O-])c(C(C)(C)C)c1.[Al+3].[Cl-]` [[Al(III)(3,5-^tBu2-salophen)Cl]], the “Glucose yield … (% of theoretical maximum)” value is listed as 28.90 ± 0.17 % of theoretical maximum (pH 10, 24 hrs hydrolysis); 29.80 ± 0.25 % of theoretical maximum (pH 11, 24 hrs hydrolysis); 34.19 ± 0.41 % of theoretical maximum (pH 13, 24 hrs hydrolysis).

For the compound `Fc1c(F)c(F)c(-c2c3nc(c(-c4c(F)c(F)c(F)c(F)c4F)c4ccc([nH]4)c(-c4c(F)c(F)c(F)c(F)c4F)c4nc(c(-c5c(F)c(F)c(F)c(F)c5F)c5ccc2[nH]5)C=C4)C=C3)c(F)c1F.[Fe+3]` [Fe(III)-tetrakis-pentafluorophenyl)-porphyrin], the “Glucose yield … (% of theoretical maximum)” value (pH 3, 24 hrs hydrolysis) was 29.18 ± 0.33 % of theoretical maximum; the “Glucose yield … (% of theoretical maximum)” value (pH 3, 72 hrs hydrolysis) is reported as 35.38 ± 0.43 % of theoretical maximum; the “Glucose yield … (% of theoretical maximum)” value (pH 11, 24 hrs hydrolysis) is reported as 35.37 ± 0.45 % of theoretical maximum; the “Glucose yield … (% of theoretical maximum)” value (pH 11, 72 hrs hydrolysis) is listed as 40.25 ± 0.19 % of theoretical maximum.

With Fe(III)-phthalocyanine, the “Glucose yield … (% of theoretical maximum)” value (pH 3, 24 hrs hydrolysis) is given as 30.91 ± 0.24 % of theoretical maximum; the “Glucose yield … (% of theoretical maximum)” value (pH 3, 72 hrs hydrolysis) is reported as 36.80 ± 2.84 % of theoretical maximum; the “Glucose yield … (% of theoretical maximum)” value (pH 11, 24 hrs hydrolysis) was 34.21 ± 0.23 % of theoretical maximum; the “Glucose yield … (% of theoretical maximum)” value (pH 11, 72 hrs hydrolysis) is on record as 38.75 ± 1.52 % of theoretical maximum.

In the case of `C1=Cc2nc1c(-c1ccccc1)c1ccc([nH]1)c(-c1ccccc1)c1nc(c(-c3ccccc3)c3ccc([nH]3)c2-c2ccccc2)C=C1.[Fe+3]` [Fe(III)-tetraphenylporphyrin], the “Glucose yield … (% of theoretical maximum)” value by setting is: (pH 3, 24 hrs hydrolysis) 31.55 ± 1.6 % of theoretical maximum; (pH 3, 72 hrs hydrolysis) 42.13 ± 1.89 % of theoretical maximum; (pH 11, 24 hrs hydrolysis) 36.98 ± 1.3 % of theoretical maximum; (pH 11, 72 hrs hydrolysis) 42.14 ± 0.63 % of theoretical maximum.
